7 compounds from patent US12410174B1, “Small molecular inhibitors of sting signaling compositions and methods of use” (TYERELL IMMUNOTHERAPEUTICS INC, priority 2020, dated 2025) can be followed below.

Assay [1] has as its system STING signaling. Nature of the assay: qPCR of IFNβ1 / Cxcl10 in normal hTERT cells after ISD transfection. It counts as cell-based, human. As to conditions: normal hTERT cells stimulated with ISD; 50 μM, 25 μM or 5 μM. As for the experimental part: (§1) Example 11: qPCR total RNA were reverse-transcribed using M-MLV Reverse Transcriptase (Promega). Real-time PCR was performed using Taqman Gene Expression Assay (Applied Biosystems) for innate immune genes and inflammatory cytokines.

The subject of assay [2] is STING signaling. As to the kind of experiment: Luciferase live cell assay, type I IFN promoter in hTERT-pIFNβ-Glu cells after ISD transfection. The format is cell-based, human. The note with it: for inhibitory activity of the type I IFN promoter (luciferase induction): hTERT-pIFNβ-Glu cells, 50 μM or 25 μM, in response to ISD; for criteria to inhibit STING dependent signaling (type I IFN promoter in human cells): test of the 25 novel analogs. On the procedure:
Inhibition of IFNβ expression was measured by Luciferase induction at 24 hours after transfection of ISD, Mock is shown (210), ISD treatment only (220) was used as a control, according to an embodiment of the invention;
Example 1: Identification of small molecule antagonists of STING. In the presence of cytosolic DNA species, STING becomes activated to drive the transcription of cytokines such as type I IFN. Compounds binding to STING via TSA were subsequently examined for their ability to prevent cytosolic DNA species from activating the type I interferon (IFN) promoter, using a live cell assay. This assay comprised immortalized human fibroblasts that were stably transfected with the type I IFN promoter driving luciferase as well as the CMV promoter driving SEAP (hTERT-pIFNβ-Glu). The live cell assay has previously been disclosed in PCT/JS2019/025380 entitled IFN-βETA REPORTER SYSTEM FOR IMMORTALIZED PRIMARY CELLS inventor Glen N. Barber, which was filed Apr. 2, 2018 and published as WO2019195285, and which is herein incorporated by reference in its entirety and for all purposes. The ability of the small molecules to prevent activation of the type I IFN promoter and the transcription of luciferase, but not SEAP in response to cytosolic DNA species was assessed. The activation of STING, typically by CDNs, in turn activates the transcription factors NF-κB and IRF3, both of which are required to induce the transcriptional stimulation of the Type I IFN promoter, but not the CMV promoter as IRF3 and NF-kB transcription factor binding sites are not contained in the CMV promoter. The assay identified the small molecule Compound Y1 in the first screen (HTS), where the level of luciferase was not able to activate the type I IFN promoter or induce the expression of luciferase (see Table I).
Example 4: hTERT-BJ1 Telomerase Fibroblasts (hTERT) were originally purchased from Clontech and were cultured in 4:1 ratio of DMEM:Medium 199 supplement with 10% FBS, 4 mM L-Glutamine and 1 mM sodium pyruvate at 37° C. in a 5% CO2-humidified atmosphere. hTERT-BJ1 Telomerase Fibroblasts stably expressing the luciferase gene under the control of the interferon-beta promoter and SEAP gene under control of the CMV promoter) (hTERT-pIFNβ-Glu) were generated by the Barber laboratory.
Example 7: Luciferase assay: hTERT-BJ1 Telomerase Fibroblasts stably expressing the luciferase gene under the control of the interferon-beta promoter and SEAP gene under control of the CMV promoter) (hTERT-pIFNβ-Glu) were generated by the Barber laboratory. Luciferase assay was performed using Secrete-Pair Dual Luminescence Assay Kit from GeneCopoeia following the manufacturer's protocol.

Assay [3] deals with STING signaling. Nature of the assay: Western blot of STING, TBK1 and IRF3 phosphorylation in MEF cells. The note with it: cytosolic DNA. It counts as cell-based, murine. As for the experimental part: Example 8: Immunoblot analysis: Equal amounts of proteins were resolved on sodium dodecyl sulfate (SDS)-Polyacrylamide gels and then transferred to polyvinylidene fluoride (PVDF) membranes (Millipore). After blocking with 5% Blocking Reagent, membranes were incubated with various primary antibodies (and appropriate secondary antibodies). The image was resolved using an enhanced chemiluminescence system ECL (Thermo Scientific) and detected by autoradiography (Kodak). Antibodies: rabbit polyclonal antibody against STING was developed in our laboratory as described previously in Ishikawa et al, 2008; other antibodies were obtained from following sources: β-actin (Sigma Aldrich), p-IRF3 (Cell Signaling), IRF3 (Santa Cruz Biotechnology), p-p65 (Cell Signaling), p65 (Cell Signaling), p-TBK1 (Cell Signaling), TBK1 (Abcam), cGAS (Cell Signaling).

In assay [4] the test system is STING signaling. Nature of the assay: Confocal analysis of STING trafficking and IRF3 translocation in hTERT cells. As to conditions: 6 hours after ISD transfection. It counts as cell-based, human. On the procedure:
FIG. 2E are photographs showing confocal analysis of STING trafficking using anti-Sting performed at 6 hours after ISD transfection with Y1+220/without 220, Mock is shown (210), ISD treatment only (220) was used as control, treatment same as in FIG. 2A, according to an embodiment of the invention;
Example 10: Immunofluorescence Microscopy: Cells were cultured and treated in their appropriate media on Lab-Tek II chamber slides. Cell were fixed with 4% paraformaldehyde for 15 minutes in at 37° C. and permeabilized with 0.05% Triton X-100 for 5 minutes at room temperature. Immunostaining was performed with rabbit-anti-STING polyclonal, rabbit-anti-IRF3 (Santa Cruz Biotechnology) or rabbit-anti-p65 (Cell Signaling) followed by fluorescence conjugated secondary antibodies (FITC-goat-anti-rabbit) (Invitrogen).

In assay [5] the test system is STING signaling. Nature of the assay: qPCR of Cxcl10 / Cxcl5 in MEF cells after ISD transfection. The format is cell-based, murine. On the procedure: MEFs were obtained from E13.5 embryos by a standard procedure. Bone Marrow Derived Macro-phages (BMDM) were isolated from hind-limb femurs of 8-10 weeks old WT and Trex1 KO (TKO) mice. The hematopoietic cells from the bone marrow were cultured in complete DMEM (Invitrogen) including 10 ng/ml of Mouse Recombinant Colony-Stimulating Factor (M-CSF, R&D Systems) for 10 to 14 days.
as §1
A general note: In qPCR the cycle at which signal appears reflects the starting amount.

Entries after “also recorded” stand apart in the source; their conditions may differ.

As to `N#Cc1c(NC(=O)c2ccccc2Cl)n(CCc2cccc(F)c2)c2nc3ccccc3nc12` [Compound Y7, 2-chloro-N-{3-cyano-1-[2-(3-fluorophenyl)ethyl]-1H-pyrrolo[2,3-b]quinoxalin-2-yl}benzamide], in assay [1], the “production of STING-inducible cytokine Cxcl10 (qPCR)” value is “robustly inhibited”. Further, in assay [2], the “inhibitory activity of the type I IFN promoter (luciferase induction)” value (“inhibitory activity” below) was “showed robust inhibitory activity of the type I IFN promoter”; the “criteria to inhibit STING dependent signaling (type I IFN promoter in human cells)” value was “found to meet the criteria to inhibit STING dependent signaling; also recorded: found to meet the criteria to inhibit STING dependent signaling and showed the most effective inhibitory activity”.

As for `N#Cc1c(NC(=O)c2ccccc2Cl)n(CCOc2ccccc2)c2nc3ccccc3nc12` [Compound Y2, 2-chloro-N-[3-cyano-1-(2-phenoxyethyl)-1H-pyrrolo [2,3-b]quinoxalin-2-yl] benzamide], the “criteria to inhibit STING dependent signaling (type I IFN promoter in human cells)” value in assay [2] was “found to meet the criteria to inhibit STING dependent signaling; also recorded: found to meet the criteria to inhibit STING dependent signaling and showed the most effective inhibitory activity”.

For the compound `N#Cc1c(NC(=O)c2cccc(F)c2Cl)n(CCc2ccccc2)c2nc3ccccc3nc12` [Compound Y5, 2-chloro-N-[3-cyano-1-(2-phenylethyl)-1H-pyrrolo [2,3-b]quinoxalin-2-yl]-3-floorobenzamide], in assay [1], the “production of STING-inducible cytokine Cxcl10 (qPCR)” value is reported as “robustly inhibited”. In assay [2], the “inhibitory activity” value is reported as “showed robust inhibitory activity of the type I IFN promoter”; the “criteria to inhibit STING dependent signaling (type I IFN promoter in human cells)” value is “found to meet the criteria to inhibit STING dependent signaling; also recorded: found to meet the criteria to inhibit STING dependent signaling and showed the most effective inhibitory activity”.

In the case of `Cc1ccc(Cl)c(C(=O)Nc2c(C#N)c3nc4ccccc4nc3n2CCc2ccccc2)c1` [Compound Y4, 2-chloro-N-[3-cyano-1-(2-phenylethyl)-1H-pyrrolo [2,3-b]quinoxalin-2-yl]-5-methylbenzamide], in assay [1], the “production of STING-inducible cytokine Cxcl10 (qPCR)” value is on record as “robustly inhibited”. In assay [3], the “phosphorylation of TBK1, IRF3 and STING (Western blot)” value was “can prevent the phosphorylation of TBK1 and IRF3 as well as STING phosphorylation”. Also, in assay [2], the “inhibitory activity” value is recorded as “showed robust inhibitory activity of the type I IFN promoter”; the “criteria to inhibit STING dependent signaling (type I IFN promoter in human cells)” value is “found to meet the criteria to inhibit STING dependent signaling; also recorded: found to meet the criteria to inhibit STING dependent signaling and showed the most effective inhibitory activity”. For the same compound, in assay [4], the “IRF3 translocation (confocal analysis)” value was “reproducibly prevented STING trafficking and IRF3 phosphorylation”; the “STING trafficking (confocal analysis)” value is “reproducibly prevented STING trafficking and IRF3 phosphorylation”. For the same compound, in assay [5], the “Cxcl10 production in response to ISD (qPCR)” value is given as “impede the production of Cxcl10”.

With `N#Cc1c(NC(=O)c2cccc(Cl)c2Cl)n(CCc2ccccc2)c2nc3ccccc3nc12` [Compound Y8, 2,3-dichloro-N-[3-cyano-1-(2-phenylethyl)-1H-pyrrolo[2,3-b]quinoxalin-2-yl]benzamide], the “production of STING-inducible cytokine Cxcl10 (qPCR)” value in assay [1] is “robustly inhibited”. Besides, the “phosphorylation of TBK1, IRF3 and STING (Western blot)” value in assay [3] is “can prevent the phosphorylation of TBK1 and IRF3 as well as STING phosphorylation”. Besides, in assay [2], the “inhibitory activity” value is listed as “showed robust inhibitory activity of the type I IFN promoter”; the “criteria to inhibit STING dependent signaling (type I IFN promoter in human cells)” value is “found to meet the criteria to inhibit STING dependent signaling; also recorded: found to meet the criteria to inhibit STING dependent signaling and showed the most effective inhibitory activity”. In addition, in assay [4], the “IRF3 translocation (confocal analysis)” value is “reproducibly prevented STING trafficking and IRF3 phosphorylation”; the “STING trafficking (confocal analysis)” value is “reproducibly prevented STING trafficking and IRF3 phosphorylation”. Further, the “Cxcl10 production in response to ISD (qPCR)” value in assay [5] is listed as “impede the production of Cxcl10”.

Turning to `N#Cc1c(NC(=O)c2c(F)cccc2Cl)n(CCc2ccccc2)c2nc3ccccc3nc12` [Compound Y6, 2-chloro-N-[3-cyano-1-(2-phenylethyl)-1H-pyrrolo [2,3-b]quinoxalin-2-yl]-6-fluorobenzamide], the “production of STING-inducible cytokine Cxcl10 (qPCR)” value in assay [1] is “robustly inhibited”. Further, in assay [2], the “inhibitory activity” value is “showed robust inhibitory activity of the type I IFN promoter”; the “criteria to inhibit STING dependent signaling (type I IFN promoter in human cells)” value is “found to meet the criteria to inhibit STING dependent signaling; also recorded: found to meet the criteria to inhibit STING dependent signaling and showed the most effective inhibitory activity”.

`COCCn1c(NC(=O)c2ccccc2Cl)c(C#N)c2nc3ccccc3nc21` [Compound Y3, 2-chloro-N-[3-cyano-1-(2-methoxyethyl)-1H-pyrrolo [2,3-ß]iquinoxalin-2-yl] benzamide]: the “criteria to inhibit STING dependent signaling (type I IFN promoter in human cells)” value in assay [2] was “found to meet the criteria to inhibit STING dependent signaling; also recorded: found to meet the criteria to inhibit STING dependent signaling and showed the most effective inhibitory activity”.
